Results taken from patent US20190374533A1, “COMPOUNDS AND METHODS FOR INHIBITING NHE-MEDIATED ANTIPORT IN THE TREATMENT OF DISORDERS ASSOCIATED WITH FLUID RETENTION OR SALT OVERLOAD AND GASTROINTESTINAL TRACT DISORDERS” (Ardelyx, Inc., priority 2008, published 2019).

molecular target: T1, rat NHE-3 (Rattus norvegicus, UniProt P26433); assay: Cell-based assay of NHE-3 activity (Pharmacological Test Example 1); conditions: OK cells expressing rat NHE-3; 0-30 uM test compound, 5 uM EIPA
T1 construct: expressed in transfected cells; host or cells: Opossum kidney (OK) cells (ATCC), electroporated
T1 sequence (P26433 29-831): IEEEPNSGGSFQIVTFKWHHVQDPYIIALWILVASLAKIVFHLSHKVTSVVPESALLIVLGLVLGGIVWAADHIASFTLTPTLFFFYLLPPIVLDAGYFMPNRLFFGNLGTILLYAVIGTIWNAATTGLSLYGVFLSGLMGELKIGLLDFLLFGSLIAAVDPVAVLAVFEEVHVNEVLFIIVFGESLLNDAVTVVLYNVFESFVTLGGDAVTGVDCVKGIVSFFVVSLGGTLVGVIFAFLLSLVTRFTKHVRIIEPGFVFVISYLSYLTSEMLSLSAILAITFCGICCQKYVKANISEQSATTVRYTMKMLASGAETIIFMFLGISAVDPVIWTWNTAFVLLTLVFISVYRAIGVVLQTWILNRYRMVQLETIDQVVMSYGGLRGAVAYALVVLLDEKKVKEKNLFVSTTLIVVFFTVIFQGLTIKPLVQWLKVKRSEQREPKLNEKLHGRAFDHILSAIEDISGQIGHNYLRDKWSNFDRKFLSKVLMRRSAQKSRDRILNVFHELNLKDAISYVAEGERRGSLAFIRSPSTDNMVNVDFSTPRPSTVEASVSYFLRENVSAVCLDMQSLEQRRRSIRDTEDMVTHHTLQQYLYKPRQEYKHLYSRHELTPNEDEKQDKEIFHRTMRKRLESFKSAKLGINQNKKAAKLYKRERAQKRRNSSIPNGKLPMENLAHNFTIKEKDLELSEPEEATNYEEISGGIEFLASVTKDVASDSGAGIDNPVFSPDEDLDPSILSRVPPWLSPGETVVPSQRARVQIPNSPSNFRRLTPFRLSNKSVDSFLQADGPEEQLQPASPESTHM
Experimental: Rat NHE-3-mediated Na^+-dependent H^+ antiport was measured using a modification of the pH sensitive dye method originally reported by Tsien (Proc. Natl. Acad. Sci. USA. (1984) 81(23): 7436-7440). Opossum kidney (OK) cells were obtained from the ATCC and propagated per their instructions. The rat NHE-3 gene was introduced into OK cells via electroporation, seeded into 96 well plates and grown overnight. Medium was aspirated from the wells, cells were washed twice with NaCl-HEPES buffer (100 mM NaCl, 50 mM HEPES, 10 mM glucose, 5 mM KCl, 2 mM CaCl2, 1 mM MgCl2, pH 7.4), then incubated for 30 min at room temperature with NH4Cl-HEPES buffer (20 mM NH4Cl, 80 mM NaCl, 50 mM HEPES, 5 mM KCl, 2 mM CaCl2), 1 mM MgCl2, pH 7.4) containing 5 uM BCECF-AM (Invitrogen). Cells were washed twice with Ammonium free, Nat-free HEPES (100 mM choline, 50 mM HEPES, 10 mM glucose, 5 mM KCl, 2 mM CaCl2), 1 mM MgCl2, pH 7.4) and incubated in the same buffer for 10 minutes at room temperature to lower intracellular pH. […] Initial rates were plotted as the average 3-6 replicates, and pIC50 values were estimated using GraphPad Prism.

Row | rat NHE-3 Average pIC50 | SMILES
1 | 6 to 7 | CN1Cc2c(Cl)cc(Cl)cc2C(c2cccc(S(=O)(=O)NCCOCCOCCOCCN)c2)C1 (centres unmarked) [Example 28, N-(2-(2-(2-(2-aminoethoxy)ethoxy)ethoxy)ethyl)-3-(6,8-dichloro-2-methyl-1,2,3,4-tetrahydroisoquinolin-4-yl)benzenesulfonamide]
2 | 6 to 7 | CN1Cc2c(Cl)cc(Cl)cc2C(c2cccc(S(=O)(=O)NCCOCCOCCOCCNC(=O)CCCCCCC(=O)NCCOCCOCCOCCNS(=O)(=O)c3cccc(C4CN(C)Cc5c(Cl)cc(Cl)cc54)c3)c2)C1 (centres unmarked) [Example 29, N1,N8-bis(2-(2-(2-(2-(3-(6,8-dichloro-2-methyl-1,2,3,4-tetrahydroisoquinolin-4-yl)phenylsulfonamido)ethoxy)ethoxy)ethoxy)ethyl)octanediamide]
3 | 6 to 7 | C/C(=C\c1cc(F)c(Oc2ccc(S(=O)(=O)NCCOCCOCCOCCN)cc2)c(F)c1)C(=O)N=C(N)N [Example 45, (E)-3-(4-(4-(N-(2-(2-(2-(2-aminoethoxy)ethoxy)ethoxy)ethyl)sulfamoyl)phenoxy)-3,5-difluorophenyl)-N-(diaminomethylene)-2-methylacrylamide]

same assay, conditions: OK cells expressing rat NHE-3; 0-30 uM test compound, 5 uM EIPA; read-out: rat NHE-3 Average pIC50 (converted)

Row | IC50 [µM] | SMILES
4 | < 0.1 | CN1Cc2c(Cl)cc(Cl)cc2[C@H](c2ccc(S(=O)(=O)NCCOCCOCCOCCNC(=O)NCCCCNC(=O)NCCOCCOCCOCCNS(=O)(=O)c3ccc([C@@H]4CN(C)Cc5c(Cl)cc(Cl)cc54)cc3)cc2)C1 (single isomer, unassigned) [Example 251, (S or R)—N,N′-(13,20-dioxo-3,6,9,24,27,30-hexaoxa-12,14,19,21-tetraazadotriacontane-1,32-diyl)bis(4-((S or R)-6,8-dichloro-2-methyl-1,2,3,4-tetrahydroisoquinolin-4-yl)benzenesulfonamide)]

test system: not listed separately; assay: Determination of compound Cmax and AUC; assay type: in vivo; conditions: rat; Sprague-Dawley rats, oral gavage, serum 0.5-4 h; actual oral dose (mg/kg) given
Experimental: Sprague-Dawley rats were orally gavaged with test article (2.5 mg/kg) and serum was collected at 0.5, 1, 2 and 4 h. Serum samples were treated with acetonitrile, precipitated proteins removed by centrifugation and supernatants analyzed by LC/MS/MS and compared against a standard curve to determine compound concentration. All compounds were orally dosed at the dosage shown, and pharmacokinetic parameters determined as described in the text.

Row | SMILES | AUC [ng·h/mL] | Cmax [ng/mL]
5 | C/C(=C\c1cc(F)c(Oc2ccc(S(=O)(=O)NCCN3CCN(CCNS(=O)(=O)c4ccc(Oc5c(F)cc(/C=C(\C)C(=O)N=C(N)N)cc5F)cc4)CC3)cc2)c(F)c1)C(=O)N=C(N)N [Example 50, N,N′-(2,2′-(piperazine-1,4-diyl)bis(ethane-2,1-diyl))di-((E)-N-(diaminomethylene)-3-(3,5-difluoro-4-(4-sulfamoylphenoxy)phenyl)-2-methylacrylamide)] | 242 | 93
6 | CN1Cc2c(Cl)cc(Cl)cc2C(c2cccc(S(=O)(=O)NCCNC(=O)C(O)C(O)C(=O)NCCNS(=O)(=O)c3cccc(C4CN(C)Cc5c(Cl)cc(Cl)cc54)c3)c2)C1 (centres unmarked) [Example 169, N1,N4-bis(2-(3-(6,8-dichloro-2-methyl-1,2,3,4-tetrahydroisoquinolin-4-yl)phenylsulfonamido)ethyl)-2,3-dihydroxysuccinamide] | < 4 | < 3.5
7 | CN1Cc2c(Cl)cc(Cl)cc2C(c2cccc(S(=O)(=O)NCCOCCOCCOCCNC(=O)C(O)C(O)C(=O)NCCOCCOCCOCCNS(=O)(=O)c3cccc(C4CN(C)Cc5c(Cl)cc(Cl)cc54)c3)c2)C1 (centres unmarked) [Example 172, N1,N4-bis(2-(2-(2-(2-(3-(6,8-dichloro-2-methyl-1,2,3,4-tetrahydroisoquinolin-4-yl)phenylsulfonamido)ethoxy)ethoxy)ethoxy)ethyl)-2,3-dihydroxysuccinamide] | < 2 | < 2
8 | CN1Cc2c(Cl)cc(Cl)cc2C(c2cccc(NC(=O)NCCOCCOCCOCCNC(=O)C(O)C(O)C(=O)NCCOCCOCCOCCNC(=O)Nc3cccc(C4CN(C)Cc5c(Cl)cc(Cl)cc54)c3)c2)C1 (centres unmarked) [Example 174, N1,N4-bis(1-(3-(6,8-dichloro-2-methyl-1,2,3,4-tetrahydroisoquinolin-4-yl)phenylamino)-1-oxo-5,8,11-trioxa-2-azatridecan-13-yl)-2,3-dihydroxysuccinamide] | < 5 | < 5.4
9 | CN1Cc2c(Cl)cc(Cl)cc2C(c2cccc(NC(=O)CCOCCOCCOCCNC(=O)[C@H](O)[C@@H](O)C(=O)NCCOCCOCCOCCC(=O)Nc3cccc(C4CN(C)Cc5c(Cl)cc(Cl)cc54)c3)c2)C1 (stereo partly drawn) [Example 179, (2R,3R)—N1,N4-bis(2-(2-(2-(3-(3-(6,8-dichloro-2-methyl-1,2,3,4-tetrahydroisoquinolin-4-yl)phenylamino)-3-oxopropoxy)ethoxy)ethoxy)ethyl)-2,3-dihydroxysuccinamide] | < 35 | < 16
10 | CN1Cc2c(Cl)cc(Cl)cc2C(c2cccc(S(=O)(=O)NCCOCCOCCNC(=O)NCCOCCOCCNS(=O)(=O)c3cccc(C4CN(C)Cc5c(Cl)cc(Cl)cc54)c3)c2)C1 (centres unmarked) [Example 235, N,N′-(10-oxo-3,6,14,17-tetraoxa-9,11-diazanonadecane-1,19-diyl)bis(3-(6,8-dichloro-2-methyl-1,2,3,4-tetrahydroisoquinolin-4-yl)benzenesulfonamide)] | < 5 | < 5

Further lines, results first:

Row | AUC [ng·h/mL] | Cmax [ng/mL] | SMILES
11 | < 5 | < 3 | CN1Cc2c(Cl)cc(Cl)cc2[C@@H](c2ccc(S(=O)(=O)NCCOCCOCCOCCNC(=O)C(O)C(O)C(=O)NCCOCCOCCOCCNS(=O)(=O)c3ccc([C@H]4CN(C)Cc5c(Cl)cc(Cl)cc54)cc3)cc2)C1 (single isomer, unassigned) [Example 226, N1,N4-bis(2-(2-(2-(2-(4-((R or S)-6,8-dichloro-2-methyl-1,2,3,4-tetrahydroisoquinolin-4-yl)phenylsulfonamido)ethoxy)ethoxy)ethoxy)ethyl)-2,3-dihydroxysuccinamide]
12 | < 2 | < 2 | CN1Cc2c(Cl)cc(Cl)cc2[C@H](c2cccc(S(=O)(=O)NCCOCCOCCOCCNC(=O)Nc3ccc(NC(=O)NCCOCCOCCOCCNS(=O)(=O)c4cccc([C@@H]5CN(C)Cc6c(Cl)cc(Cl)cc65)c4)cc3)c2)C1 (single isomer, unassigned) [Example 245, (S or R)—N,N′-(1,1′-(1,4-phenylenebis(azanediyl))bis(1-oxo-5,8,1-trioxa-2-azatridecane-13,1-diyl))bis(3-((S or R)-6,8-dichloro-2-methyl-1,2,3,4-tetrahydroisoquinolin-4-yl)benzenesulfonamide)]
13 | < 19 | < 10 | CN1Cc2c(Cl)cc(Cl)cc2C(c2cccc(S(=O)(=O)NCCOCCOCCOCCNC(=O)C(=O)NCCOCCOCCOCCNS(=O)(=O)c3cccc(C4CN(C)Cc5c(Cl)cc(Cl)cc54)c3)c2)C1 (centres unmarked) [Example 180, N1,N2-bis(2-(2-(2-(2-(3-(6,8-dichloro-2-methyl-1,2,3,4-tetrahydroisoquinolin-4-yl)phenylsulfonamido)ethoxy)ethoxy)ethoxy)ethyl)oxalamide]
14 | < 2 | < 2 | CN1Cc2c(Cl)cc(Cl)cc2C(c2cccc(S(=O)(=O)NCCOCCOCCOCCNC(=O)CCC(=O)NCCOCCOCCOCCNS(=O)(=O)c3cccc(C4CN(C)Cc5c(Cl)cc(Cl)cc54)c3)c2)C1 (centres unmarked) [Example 181, N1,N4-bis(2-(2-(2-(2-(3-(6,8-dichloro-2-methyl-1,2,3,4-tetrahydroisoquinolin-4-yl)phenylsulfonamido)ethoxy)ethoxy)ethoxy)ethyl)succinamide]
15 | < 2 | < 2 | CN(CC(=O)NCCOCCOCCNS(=O)(=O)c1ccc(C2CN(C)Cc3c(Cl)cc(Cl)cc32)cc1)CC(=O)NCCOCCOCCNS(=O)(=O)c1ccc(C2CN(C)Cc3c(Cl)cc(Cl)cc32)cc1 (centres unmarked) [Example 185, 2,2′-(methylazanediyl)bis(N-(2-(2-(2-(4-(6,8-dichloro-2-methyl-1,2,3,4-tetrahydroisoquinolin-4-yl)phenylsulfonamido)ethoxy)ethoxy)ethyl)acetamide) tris(2,2,2-trifluoroacetate)]
16 | < 5 | < 3.4 | CN1Cc2c(Cl)cc(Cl)cc2C(c2ccc(S(=O)(=O)NCCOCCOCCNC(=O)c3cc(N)cc(C(=O)NCCOCCOCCNS(=O)(=O)c4ccc(C5CN(C)Cc6c(Cl)cc(Cl)cc65)cc4)c3)cc2)C1.O=C(O)C(F)(F)F.O=C(O)C(F)(F)F.O=C(O)C(F)(F)F (centres unmarked) [Example 186, 5-amino-N1,N3-bis(2-(2-(2-(4-(6,8-dichloro-2-methyl-1,2,3,4-tetrahydroisoquinolin-4-yl)phenylsulfonamido)ethoxy)ethoxy)ethyl)isophthalamide tris(2,2,2-trifluoroacetate)]
17 | < 5 | < 5 | CN1Cc2c(Cl)cc(Cl)cc2C(c2cccc(S(=O)(=O)NCCOCCOCCOCCOCCOCCOCCOCCOCCOCCOCCN)c2)C1 (centres unmarked) [Example 214, N-(32-amino-3,6,9,12,15,18,21,24,27,30-decaoxadotriacontyl)-3-(6,8-dichloro-2-methyl-1,2,3,4-tetrahydroisoquinolin-4-yl)benzenesulfonamide]
18 | < 1 | < 1 | CN1Cc2c(Cl)cc(Cl)cc2C(c2cccc(S(=O)(=O)NCCOCCOCCNC(=O)[C@H](O)[C@@H](O)C(=O)NCCOCCOCCNS(=O)(=O)c3cccc(C4CN(C)Cc5c(Cl)cc(Cl)cc54)c3)c2)C1 (stereo partly drawn) [Example 218, (2R,3R)—N1,N4-bis(2-(2-(2-(3-(6,8-dichloro-2-methyl-1,2,3,4-tetrahydroisoquinolin-4-yl)phenylsulfonamido)ethoxy)ethoxy)ethyl)-2,3-dihydroxysuccinamide]
